Measured values reported in US20260015357A1, “MODULATORS OF NLRP3 INFLAMMASOME AND RELATED PRODUCTS AND METHODS” (Neumora Therapeutics, Inc., priority 2022, published 2026).

Legend:
[1] = system: IL-6; experiment: IL-6 in supernatants of LPS-primed, nigericin-treated THP1 macrophages, Hu IL-6 AlphaLISA; format: cell-based; conditions: Homo sapiens, THP-1, PMA-differentiated, 1 hr compound, Nigericin 6.7 uM 3 hrs, IL-6 in supernatant
Protocol: (§1) NLRP3 Inflammasome Activation and Cell Viability Assessment in THP1 Macrophages
(§2) THP1—Human acute monocytic leukemia cells were cultured (ATCC, cat #TIB-202) in Gibco RPMI-1640 medium (ThermoFisher cat #72400054) supplemented with 10% Heat Inactivated FBS at density between 3-8×10^5 viable cells/mi. The cells were then subcultured when the cell concentration reached 8×10^5 cells/mL (every 2-3 days).
(§3) The parameter wells were filled with 50 ul PBS and incubated at 37° C., 5% CO2 for 48 hrs.
(§4) After 48 hrs incubation, the PMA containing media was removed, and changed for 40 ul/well of fresh DMEM, 10% FBS, 1× GlutaMax and incubated at 37° C., 5% CO2 for 24 hrs.
(§5) The following day the cells were primed with LPS (E. coli) (Sigma, cat #L3129) […] in DMEM, 10% FBS, 1× GlutaMax for 3 hrs at 37° C., 5% CO2.
(§6) Following the LPS priming step, the cells were treated with compounds at 10 uM top final concentration, 1:4 dilution, 8 times: (10 uM, 2.5 uM, 0.625 uM, 0.156 uM, 0.039 uM, 0.0097 uM, 0.0024 uM, 0.0006 uM). DMSO was used as a vehicle control, and MCC950 (InvivoGen, cat #inh-mcc) was used at 1 uM as a positive control, and incubated for 1 hrs at 37° C., 5% CO2.
(§7) Following the 1 hr compound incubation, the NLRP3 inflammasome activation step was conducted by treating cells with Nigericin (InvivoGen, cat #tlrl-nig) at 6.7 uM final concentration for 3 hrs at 37° C., 5% CO2.
(§8) Thereafter, 30 ul samples of cells' supernatants were collected for cytokine analysis which was conducted on Hu IL-1β AlphaLISA (Perkin Elmer, cat #AL220C) and Hu IL-6 AlphaLISA (Perkin Elmer, cat #AL220C). The cells' viability was assessed by performing CellTiter-Glo Luminescent Assay (Promega, cat #G7572) according to the manufacturer's protocol.

[2] = target: T1, NLRP3 inflammasome (Homo sapiens, UniProt Q96P20); experiment: NLRP3 inflammasome activation in LPS-primed, nigericin-activated THP1 macrophages, IL-1β AlphaLISA; format: cell-based; conditions: PMA-differentiated, 1 hr compound, Nigericin 6.7 uM 3 hrs, IL-1β in supernatant
T1 construct: host or cells: THP1 human acute monocytic leukemia cells, PMA-differentiated, LPS-primed
T1 sequence (Q96P20 whole entry): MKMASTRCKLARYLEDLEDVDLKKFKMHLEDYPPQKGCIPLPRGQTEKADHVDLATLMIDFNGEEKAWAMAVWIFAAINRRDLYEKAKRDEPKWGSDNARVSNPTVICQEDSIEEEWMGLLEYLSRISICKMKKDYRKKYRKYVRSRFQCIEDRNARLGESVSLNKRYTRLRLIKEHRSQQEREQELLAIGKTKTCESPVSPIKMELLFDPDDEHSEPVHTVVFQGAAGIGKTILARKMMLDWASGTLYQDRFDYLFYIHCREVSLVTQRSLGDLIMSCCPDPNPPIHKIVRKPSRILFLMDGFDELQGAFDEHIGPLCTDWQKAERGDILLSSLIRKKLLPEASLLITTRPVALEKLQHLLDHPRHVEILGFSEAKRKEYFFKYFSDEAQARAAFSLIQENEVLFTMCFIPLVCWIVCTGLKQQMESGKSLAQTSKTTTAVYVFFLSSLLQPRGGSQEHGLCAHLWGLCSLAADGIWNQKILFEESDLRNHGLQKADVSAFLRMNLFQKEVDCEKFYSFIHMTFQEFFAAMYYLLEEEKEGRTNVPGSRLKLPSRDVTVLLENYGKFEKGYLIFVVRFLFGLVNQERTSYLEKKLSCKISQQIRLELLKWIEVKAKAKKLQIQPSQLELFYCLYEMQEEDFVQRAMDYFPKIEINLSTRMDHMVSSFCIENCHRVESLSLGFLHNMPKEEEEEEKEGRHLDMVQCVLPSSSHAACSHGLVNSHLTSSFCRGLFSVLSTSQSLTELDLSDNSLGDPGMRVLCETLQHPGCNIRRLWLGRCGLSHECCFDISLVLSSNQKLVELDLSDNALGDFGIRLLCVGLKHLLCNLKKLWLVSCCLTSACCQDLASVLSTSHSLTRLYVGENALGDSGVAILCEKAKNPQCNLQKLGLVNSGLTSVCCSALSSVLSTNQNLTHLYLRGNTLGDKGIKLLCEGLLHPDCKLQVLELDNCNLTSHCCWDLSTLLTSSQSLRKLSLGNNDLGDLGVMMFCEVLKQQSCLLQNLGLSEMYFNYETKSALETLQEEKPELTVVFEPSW
Protocol: as §1, §2, §3, §4, §5, §6, §7, §8

Compound	IC50 [1] [nM]	IC50 [2] [nM]
CN1CCC[C@@H](N(C)c2nnc(-c3ccc(C(F)(F)F)cc3)c3c2cnn3C)C1 [Compound 106]	≥ 10000	≥ 10000
CN1CCC[C@@H](Nc2nnc(-c3ccc(C(F)(F)F)cc3)c3c2CCC3)C1 [Compound 65]	5000 to 10000	< 10
CN1CCC[C@@H](N(C)c2nnc(-c3ccc(F)cc3O)c3ccsc23)C1 [Compound 98]	≥ 10000	100 to 500
CN1CCC[C@@H](N(C)c2nnc(-c3ccc(C(F)(F)F)cc3)c3c2ccn3C)C1 [Compound 71]	≥ 10000	1000 to 10000
CN1CCC[C@@H](Nc2nnc(-c3ccc(C(F)(F)F)cc3)c3sncc23)C1 [Compound 64]	5000 to 10000	10 to 100
Cn1ncc2c(-c3ccc(C(F)(F)F)cc3)nnc(N[C@@H]3CCCN(C4CC4)C3)c21 [Compound 109]	≥ 10000	10 to 100
N#Cc1ccc(-c2nnc(N[C@@H]3CCCN(CCO)C3)c3sncc23)c(O)c1 [Compound 151]	≥ 10000	< 10
CN1CCC[C@@H](N(C)c2nnc(-c3ccc(C(F)(F)F)cc3)c3ccn(C)c23)C1 [Compound 27, (R)—N,1-dimethyl-N-(1-methylpiperidin-3-yl)-4-(4-(trifluoromethyl)phenyl)-1H-pyrrolo[2,3-d]pyridazin-7-amine]	≥ 10000	1000 to 10000
CN1CCC[C@@H](Nc2nnc(-c3ccc(C(F)(F)F)cc3)c3c2OCC3)C1 [Compound 58]	≥ 10000	100 to 500
CN1CCC[C@@H](Nc2nnc(-c3ccc(C(F)(F)F)cc3)c3cnsc23)C1 [Compound 63, (R)—N-(1-methylpiperidin-3-yl)-4-(4-(trifluoromethyl)phenyl)isothiazolo[4,5-d]pyridazin-7-amine]	5000 to 10000	10 to 100
CN1CCC[C@@H](Nc2nnc(-c3ccccc3C(F)F)c3cc[nH]c23)C1 [Compound 12]	≥ 10000	100 to 500
CN1CCCC(Cc2nnc(-c3ccc(C(F)(F)F)cc3)c3cc[nH]c23)C1 (stereo not shown) [Compound 83]	1000 to 5000	10 to 100
CN1CCC[C@@H](Nc2nnc(-c3ccc(C(F)(F)F)cc3)c3occc23)C1 [Compound 54]	1000 to 5000	100 to 500
CN1CCC[C@@H](N(C)c2nnc(-c3ccc(F)cc3O)c3cc[nH]c23)C1 [Compound 96]	≥ 10000	10 to 100
CN1CCC[C@@H](Oc2nnc(-c3ccc(F)cc3O)c3cc[nH]c23)C1 [Compound 90]	≥ 10000	100 to 500
CN1CCC[C@@H](Nc2nnc(-c3ccc(C(F)(F)F)cc3)c3ccsc23)C1 [Compound 61]	≥ 10000	10 to 100
CN1CCC[C@@H](Nc2nnc(-c3ccc(C(F)(F)F)cc3)c3ccoc23)C1 [Compound 53]	≥ 10000	10 to 100
CN1CCC[C@@H](N(C)c2nnc(-c3ccccc3O)c3[nH]ccc23)C1 (single isomer, unassigned) [Compound 68]	5000 to 10000	≥ 10000
CN1CCC[C@@H](Nc2nnc(-c3ccccc3O)c3[nH]ccc23)C1 [Compound 8]	≥ 10000	100 to 500
CN1CCC[C@@H](Nc2nnc(-c3ccc(C(F)(F)F)cc3)c3c2CCO3)C1 [Compound 59]	≥ 10000	≥ 10000

Further lines, results first:

IC50 [1] [nM]	IC50 [2] [nM]	Compound
≤ 1000	500 to 1000	CC(C)N1CCC[C@@H](Nc2nnc(-c3ccc(C(F)(F)F)cc3)c3ccn(C)c23)C1 [Compound 77]
≥ 10000	100 to 500	CN1CCC[C@@H](Nc2nnc(-c3ccc(F)cc3O)c3[nH]ccc23)C1 [Compound 7]
≥ 10000	500 to 1000	Cc1cc(C(F)(F)F)ccc1-c1nnc(N[C@@H]2CCCN(C)C2)c2cc[nH]c12 [Compound 3]
≥ 10000	100 to 500	CN1CCC[C@@H](Nc2nnc(-c3ccc(C#N)cc3)c3ccn(C)c23)C1 [Compound 79]
5000 to 10000	< 10	Cc1cc(C#N)cc(O)c1-c1nnc(N[C@@H]2CCCN(C)C2)c2c1ccn2C [Compound 127]
≤ 1000	< 10	Cc1cc(C(F)(F)F)cc(O)c1-c1nnc(N[C@@H]2CCCN(C)C2)c2c1ccn2C [Compound 143]
≥ 10000	10 to 100	Cn1ccc2c(-c3ccc(C#N)cc3O)nnc(N[C@@H]3CCCN(CC(C)(C)O)C3)c21 [Compound 152]
≥ 10000	< 10	CN1CCC[C@@H](Nc2nnc(-c3ccc(C(F)(F)F)cc3)c3c2cnn3C)C1 [Compound 32]
≥ 10000	100 to 500	CN1CCC[C@@H](Nc2nnc(-c3ccc(C#N)cc3Cl)c3ccn(C)c23)C1 [Compound 124]
≥ 10000	10 to 100	CN(C)CCN1CCC[C@@H](Nc2nnc(-c3ccc(C#N)cc3O)c3ccn(C)c23)C1 [Compound 156]
≥ 10000	10 to 100	CN1CCC[C@@H](Nc2nnc(-c3ccc(Cl)cc3C(F)F)c3ccn(C)c23)C1 [Compound 121]
≥ 10000	1000 to 10000	CN1CCC[C@@H](Nc2nnc(-c3ncc(C(F)(F)F)cc3O)c3ccn(C)c23)C1 [Compound 168]
≥ 10000	< 10	CN1CCC[C@@H](Nc2nnc(-c3ccc(C#N)cc3O)c3cnsc23)C1 [Compound 144]
≥ 10000	10 to 100	Cc1cc(C(F)(F)F)ccc1-c1nnc(N[C@@H]2CCCN(C)C2)c2c1cnn2C [Compound 110]
≥ 10000	10 to 100	CN1CCC[C@@H](Nc2nnc(-c3ccccc3O)c3ccn(C)c23)C1 (single isomer, unassigned) [Compound 17]
≥ 10000	≥ 10000	Cc1cc(C#N)cc(C)c1-c1nnc(N[C@@H]2CCCN(C)C2)c2c1ccn2C [Compound 126]
1000 to 5000	100 to 500	CN1CCC[C@@H](N(C)c2nnc(-c3ccc(F)cc3O)c3ccn(C)c23)C1 [Compound 81]
1000 to 5000	1000 to 10000	CN1CCC[C@@H](N(C)c2nnc(-c3ccc(Cl)cc3)c3ccn(C)c23)C1 [Compound 82]
1000 to 5000	1000 to 10000	CN1CCC[C@@H](N(C)c2nnc(-c3ccccc3O)c3ccn(C)c23)C1 [Compound 18]
≥ 10000	10 to 100	CN1CCC[C@@H](Nc2nnc(-c3ccc(C(F)(F)F)cc3)c3cnn(C)c23)C1 [Compound 31]
≥ 10000	500 to 1000	CN1CCC[C@@H](Nc2nnc(-c3ccc(C(F)(F)F)cc3)c3c2ncn3C)C1 [Compound 29]
≥ 10000	10 to 100	COCCN1CCC[C@@H](Nc2nnc(-c3ccc(C#N)cc3O)c3ccn(C)c23)C1 [Compound 153]
1000 to 5000	< 10	CN1CCC[C@@H](Nc2nnc(-c3ccc(F)cc3O)c3ccn(C)c23)C1 [Compound 78]
5000 to 10000	1000 to 10000	Cc1cc(-c2nnc(N[C@@H]3CCCN(C)C3)c3[nH]ccc23)ccc1C(F)(F)F [Compound 23]
≥ 10000	1000 to 10000	Cc1cc2c(N[C@@H]3CCCN(C)C3)nnc(-c3ccc(C(F)(F)F)cc3)c2[nH]1 [Compound 75]
≥ 10000	< 10	Cn1ccc2c(-c3ccc(C#N)cc3O)nnc(N[C@@H]3CCCN(CCO)C3)c21 [Compound 147]
5000 to 10000	< 10	CCN1CCC[C@@H](Nc2nnc(-c3ccc(C#N)cc3O)c3ccn(C)c23)C1 [Compound 103]
